Data on 3 compounds can be found in US12263169B2, “Methods of treating neuroepithelial tumors using selective glucocorticoid receptor modulators” (Corcept Therapeutics, Inc., priority 2017, dated 2025).

The structures appear in SMILES notation.

One assay has as its system GBM4. The assay can be described thus: Cell growth inhibition (Alamar Blue cell viability assay). The format is cell-based. Particulars: Homo sapiens, GBM4 patient-derived neurosphere line, 72 hours treatment, triplicate. The method, then:
(§1) The effect of GRMs on the growth in culture of human and mouse glioblastoma cells was examined. The GRMs mifepristone and CORT125134 inhibited growth in culture of each of five different glioblastoma cell lines. The highest drug concentration tested was 50 μM. The cell lines used were the Standard Serum Human glioblastoma (GBM) Cell lines: U251, GL261, U87, and the patient-derived neurosphere cell lines GBM8 and GBM4. Cells were plated at cell numbers of 2000 cells/well, in a 96-well format; the experiments were done in triplicate. Cell growth inhibition by the applied drugs was assayed. Cell growth inhibition was quantified by the Alamar Blue method using a commercial assay kit. Cell growth inhibition was determined (“read out”) after 72 hours of treatment. […] Cell Cultures: The human glioblastoma cell lines (obtained from the American Type Culture Collection (ATCC), Manassas VA, USA) tested were U251 and U87 (human), and GL261 (mouse). These were grown as an adherent monolayer cultured in DMEM supplemented with 10% fetal bovine serum (FBS) (Seradigm, a subsidiary of VWR, Radnor PA, USA) and 1% glutamine pen-strep (Omega Scientific, Tarzana CA, USA). GBM8 (passage 12) and GBM4 are patient derived glioma stem cell lines obtained and cultured as neurospheres (spheroids) as described by Galli et al., “Isolation and characterization of tumorigenic, stem-like neural precursors from human glioblastoma” Cancer Res 2004, 64 (19), 7011-21 and Lee et al., “Tumor stem cells derived from glioblastomas cultured in bFGF and EGF more closely mirror the phenotype and genotype of primary tumors than do serum-cultured cell lines” Cancer Cell 2006, 9 (5), 391-403. Initial GBM surgical samples were dissociated in stem cell isolation medium containing human recombinant EGF ([…]), human bFGF ([…]) and heparin (2 μg/ml), washed, filtered through a 30 μm mesh and plated onto ultra-low adherence flasks at a concentration of 5×10^5 to 1.5×10^6 viable cells/ml. Sphere cultures were passaged by dissociation, washing and resuspension in neural stem cell culture medium (NeuroCult™ NS-A Proliferation kit #05751, Stemcell Technologies, Vancouver, BC, CA), according to the manufacturer's instructions. Cell Viability Assay: Cells were seeded into 96-well plates at a density of 2000 cells per well. Compounds were added 24 hours after the seeding of cells. All compounds were diluted in 1% FBS/DMEM. The control was treated with media alone. After 3 days incubation (37° C./5% CO2) Alamar Blue (#BUF012B, AbDSerotec, Kidlington, UK) was added according to the manufacturer's protocol, directly to the medium and placed back in the tissue culture incubator (37° C. 5% CO2). After 3-18 hours fluorescent signal was read at 544ex/590em (SpectraMax i3x plate reader, Molecular Devices, San Jose CA, USA) to determine the number of viable cells. The IC50 values were calculated using commercial software (Prism 5 Software, GraphPad, La Jolla CA, USA). After 24 hours post incubation, cells were treated with drugs at various concentrations for 72 hours. Cell viability was measured after 72 hours by Alamar Blue and results reported as triplicate experiment. The following Table presents the IC50 values as determined in these experiments.
On the technique in general: The colour change of resazurin is a common sign of viable cells or microbes.

Another assay has as its system GBM8. The description is as above. The assay is classed as cell-based. As to conditions: Homo sapiens, GBM8 patient-derived neurosphere line, 72 hours treatment, triplicate. How it is done:
as §1

The test system of a further assay is GL261. Described as above. Particulars: Mus musculus, GL261 standard GBM line, 72 hours treatment, triplicate. The assay is classed as cell-based. How it is done:
as §1

Another assay has as its system U251. The description is as above. The format is cell-based. Particulars: Homo sapiens, U-251, U251 standard GBM line, 72 hours treatment, triplicate. The method, then:
as §1

Another assay concerns U87. The assay is described as above. The assay is classed as cell-based. As to conditions: Homo sapiens, U-87 MG, U87 standard GBM line, 72 hours treatment, triplicate. The method, then: as §1
Assay [1] concerns glioblastoma cell lines U251, GL261, U87, GBM8 and GBM4. Put plainly: Cell growth inhibition, summary over five glioblastoma cell lines. The assay is classed as cell-based, human and mouse. As to conditions: range over five glioblastoma cell lines, 72 hours treatment, Alamar Blue; read-out: half-maximal inhibition concentration (IC50) values, range over the cell lines. The method, then: The effect of GRMs on the growth in culture of human and mouse glioblastoma cells was examined. The GRMs mifepristone and CORT125134 inhibited growth in culture of each of five different glioblastoma cell lines. The highest drug concentration tested was 50 μM. The cell lines used were the Standard Serum Human glioblastoma (GBM) Cell lines: U251, GL261, U87, and the patient-derived neurosphere cell lines GBM8 and GBM4. Cells were plated at cell numbers of 2000 cells/well, in a 96-well format; the experiments were done in triplicate. Cell growth inhibition by the applied drugs was assayed. Cell growth inhibition was quantified by the Alamar Blue method using a commercial assay kit. Cell growth inhibition was determined (“read out”) after 72 hours of treatment. […] Cell Cultures: The human glioblastoma cell lines (obtained from the American Type Culture Collection (ATCC), Manassas VA, USA) tested were U251 and U87 (human), and GL261 (mouse). […] After 3-18 hours fluorescent signal was read at 544ex/590em (SpectraMax i3x plate reader, Molecular Devices, San Jose CA, USA) to determine the number of viable cells. The IC50 values were calculated using commercial software (Prism 5 Software, GraphPad, La Jolla CA, USA). […] Cell viability was measured after 72 hours by Alamar Blue and results reported as triplicate experiment. The following Table presents the IC50 values as determined in these experiments.

For a further assay, the system named is meningioma. The assay can be described thus: Treating a meningioma patient with SGRM, tumor load monitored by enhanced MRI. The assay is classed as in vivo, human. Particulars: 200 mg once a day for eight weeks. The method, then:
A patient complains of tinnitus and right-sided hearing loss for 6 months. […] They are treated with CORT125134 at a dose of 200 mg once a day for eight weeks. Their tumor load is monitored using enhanced MRI before, during and after the treatment.
A patient complains of tinnitus and right-sided hearing loss for 6 months. […] They are treated with CORT125281 at a dose of 200 mg once a day for eight weeks. Their tumor load is monitored using enhanced MRI before, during and after the treatment.

On to `CC#C[C@]1(O)CC[C@H]2[C@@H]3CCC4=CC(=O)CCC4=C3[C@@H](c3ccc(N(C)C)cc3)C[C@@]21C` [Mifepristone, 17-β-hydrox-11-β-(4-dimethyl-aminophenyl)17-α-(1-propynyl)estra-4,9-dien-3-one, reference compound], for which the IC50 in the assay on GBM4 is 24.1 µM; in the assay with GBM8 it was 24 µM; with GL261 it was 15.7 µM; in the assay on U251, 18.4 µM; in the assay on U87, 18.4 µM; in assay [1] it was 16 to 24 µM.

As for `Cn1cc(S(=O)(=O)N2CCC3=Cc4c(cnn4-c4ccc(F)cc4)C[C@]3(C(=O)c3cc(C(F)(F)F)ccn3)C2)cn1` [CORT125134, (R)-(1-(4-fluorophenyl)-6-((1-methyl-1H-pyrazol-4-yl)sulfonyl)-4,4a,5,6,7,8-hexahydro-1H-pyrazolo[3,4-g]isoquinolin-4a-yl)(4-(trifluoromethyl)pyridin-2-yl)methanone], the IC50 in the assay on GBM4 is 20.7 µM; in the assay on GBM8 it was 29.1 µM; in the assay with GL261, 5.86 µM; in the assay on U251, 12.5 µM; in the assay on U87, 5.42 µM; in assay [1] it was 5 to 29 µM. For the same compound, the “reduction of tumor size as compared to baseline at the end of the treatment period” value in the assay with meningioma is “more than 50%”.

With `Cn1ncc(S(=O)(=O)N2CC[C@H]3Cc4c(cnn4-c4ccc(F)cc4)C[C@]3(C(=O)c3cc(C(F)(F)F)ccn3)C2)n1` [CORT125281, ((4aR,8aS)-1-(4-fluorophenyl)-6-((2-methyl-2H-1,2,3-triazol-4-yl)sulfonyl)-4,4a,5,6,7,8,8a,9-octahydro-1H-pyrazolo[3,4-g]isoquinolin-4a-yl)(4-(trifluoromethyl)pyridin-2-yl)methanone], the “reduction of tumor size as compared to baseline at the end of the treatment period” value in the assay on meningioma is recorded as “more than 50%”.
